≈ marks a conversion by molar mass, not a printed value.
settings: buffer; pH 7.4; 200.0 µM

Structure (SMILES)	solubility kinetic [µg/mL]
O=C(O)CN1C(=O)CC(c2ccccc2)CC1=O	25 (≈ 101 µM)
Cc1ccc([N+](=O)[O-])cc1NC(=O)C[n+]1ccccc1.[Cl-]	> 46.2
O=C(CSc1ccccc1)Nc1ccc(Cl)c(S(=O)(=O)N2CCOCC2)c1	14.6 (≈ 34.2 µM)
CCc1ccccc1NC(=O)NCc1ccccn1	> 38.3
COc1cccc(CNC(=O)N[C@@H](C)C(=O)O)c1	> 37.8
Cc1cc(NC(=O)CN(C)S(=O)(=O)c2cccc(Cl)c2)no1	10.5 (≈ 30.5 µM)
COC(=O)CSc1nc2ccccc2c(=O)n1Cc1ccccc1	0.7 (≈ 2.06 µM)
O=C(COc1ccccc1Cl)Nc1ccc(N2CCCC2)cc1	< 0.4
Cc1ccc(S(=O)(=O)Nc2cccnc2)cc1C	10.7 (≈ 40.8 µM)
Cc1cc(C2(O)C(=O)Nc3ccccc32)ccc1F (stereo unspecified)	> 38.6
Cc1ccc(NC2=C(Cl)C(=O)OC2OC(C)C)cc1 (stereo unspecified)	34.8 (≈ 124 µM)
Cc1cc(C(=O)CN2C(=O)NC(CC(C)C)C2=O)c(C)n1C1CC1 (stereo unspecified)	22.7 (≈ 68.5 µM)
COc1ccc(NC(=S)N(CCN(C)C)Cc2cccs2)cc1	> 52.4
CN1CCN(C(=S)c2ccc(-c3cccc([N+](=O)[O-])c3)o2)CC1	43.3 (≈ 131 µM)
CC(C)(C)C1CCC(C(=O)Nc2nccs2)CC1 (stereo unspecified)	0.3 (≈ 1.13 µM)
CCOC(=O)c1c(C)[nH]c(C)c1C(=O)COC(=O)CCc1ccccc1	> 53.6
Cc1ccc(NC(=O)COC(=O)CCc2ccccc2)cc1S(=O)(=O)N1CCOCC1	24.6 (≈ 55.1 µM)
Cc1ccc(SCCNC(=O)c2ccc([N+](=O)[O-])c(C)c2)cc1	9.5 (≈ 28.8 µM)
COc1cccc(C2(O)CCN(CC(=O)NCC3CC3)CC2)c1	> 47.8
O=C(Nc1ccc(Cl)cc1)N1CCN(c2ncccn2)CC1	44.4 (≈ 140 µM)
CSc1nc2ccc(C)cc2c(=O)n1-c1cccnc1	8.1 (≈ 28.6 µM)
Cc1ccc(-c2c[nH]c(=S)n2-c2ccccc2F)cc1	11.2 (≈ 39.4 µM)
Cc1[nH]nc(SCC(=O)Nc2cccc(O)c2)c1[N+](=O)[O-]	> 46.2
CC(=O)Nc1ccc(NC(=O)C(C)OC(=O)C2CCCC2)cc1 (stereo unspecified)	> 47.8
O=C(O)c1cccc([N+](=O)[O-])c1C(=O)Nc1ccc2ccccc2c1	35.4 (≈ 105 µM)

Structure (SMILES)	solubility kinetic [µg/mL]
COc1ccc(NC(=O)c2ccc(NC(=O)c3ccncc3)cc2)cc1	0.8 (≈ 2.3 µM)
O=S(=O)(c1cc(Cl)ccc1Cl)N1CCN2CCCC2C1 (stereo unspecified)	47.5 (≈ 142 µM)
COc1ccc(CN2C(=O)c3ccc(C(=O)O)cc3C2=O)cc1	> 46.7
Cc1cccc(CN2CCN(C(=O)c3cccc4ccccc34)CC2)c1	38.6 (≈ 112 µM)
S=C(NCc1ccc(Cl)cc1)N1CCN(c2ccccn2)CC1	< 0.2
COc1ccccc1C1CCN(C(=O)c2ccc(Cl)cc2)CC1	17 (≈ 51.5 µM)
Nc1ccccc1Nc1nc2ccccc2[nH]1	> 33.6
CC(=O)c1sc(=S)n(-c2ccccc2)c1C	9.4 (≈ 37.7 µM)
CC1CCCC(C)N1C(=O)c1cc(-c2ccco2)on1 (stereo unspecified)	> 41.1
O=C(Nc1cccc2ccccc12)C1CCCC1	12.2 (≈ 51 µM)
Cc1ccc(CN2CCN(C3CCOCC3)CC2CCO)cc1 (stereo unspecified)	> 47.8
CC(OC(=O)C1CCCCC1)C(=O)Nc1cccc(Cl)c1 (stereo unspecified)	22.3 (≈ 72 µM)
CCSc1nc2cc(S(=O)(=O)N3CCOCC3)ccc2o1	> 49.3
Nc1cccc(-c2nc3ncccc3o2)c1	> 31.7
c1ccc2c(c1)NCC1CCCN21 (stereo unspecified)	12.7 (≈ 72.9 µM)
Cc1cccc2nc3c(nc12)CCCC3	6.4 (≈ 32.3 µM)
COc1ccc(Cl)cc1C(=O)NC1=NCCS1	38.6 (≈ 143 µM)
O=C(Nc1ccc(C(=O)N2CCCCC2)cc1)c1cccs1	35 (≈ 111 µM)
COC(=O)c1ccccc1NC(=O)c1cc[n+](C)cc1	26.8
Cc1ccc(C)c2c1c1ccccc1n2C	1.1 (≈ 5.26 µM)
NC(=S)N(c1ccccc1)c1ccccc1	> 34.2
S=C(Nc1ccc(Cl)cc1Cl)N1CCN(c2ccccn2)CC1	1 (≈ 2.72 µM)
CC(CCc1ccccc1)NC(=O)CCNC(=O)c1ccccc1Cl (stereo unspecified)	12.3 (≈ 34.3 µM)
CSCCC(NS(=O)(=O)/C=C/c1ccccc1)C(=O)O (stereo unspecified)	> 47.3
CC(=O)c1ccc(S(=O)(=O)N(C)C(C)CCc2ccco2)cc1 (stereo unspecified)	31.8 (≈ 94.8 µM)

Structure (SMILES)	solubility kinetic [µg/mL]
O=C(N/N=C/c1ccoc1)c1ccc(Cl)cc1Cl	> 42.5
C=C(C)c1cccc(C(C)(C)NC(=O)Nc2nncs2)c1	> 45.4
Cc1ccc(C)c(C(=O)CSc2nc(C)cc(=O)[nH]2)c1	27.5 (≈ 95.4 µM)
CC(=O)c1cccc(NC(=O)c2cc(=O)[nH]c3ccccc23)c1	12.5 (≈ 40.8 µM)
COc1cc(C(=O)Nc2cc(OC)c(OC)c(OC)c2)ccc1OCc1c(C)noc1C	2.9 (≈ 6.55 µM)
CNC(=O)CSc1nnc(-c2ccccc2)n1C	> 39.3
CN(C)/C=C/C(=O)c1ccc2noc(-c3cccc(F)c3)c2c1	7.3 (≈ 23.5 µM)
CCOCCOC(=O)NCCCCCCNC(=O)OCCOCC	38.2 (≈ 110 µM)
COc1ccc(CCNC(=O)C2CC2)cc1	32.4 (≈ 148 µM)
O=S(=O)(Nc1ncccn1)c1ccc(Cl)cc1	40.1 (≈ 149 µM)
CC(=O)n1cc(C=C2C(=O)NC(=O)NC2=O)c2ccccc21	27.5 (≈ 92.5 µM)
O=C(NCCc1ccccc1)C(=O)c1c[nH]c2ccccc12	0.4 (≈ 1.37 µM)
CC(=O)N(CCc1cccc(C)c1)Cc1cc2ccc(C)cc2[nH]c1=O	5.1 (≈ 14.6 µM)
CN(Cc1ccccc1)S(=O)(=O)c1ccc(NC(=O)C2CCCCC2C(=O)O)cc1 (stereo unspecified)	> 64.6
Cc1ccc(S(=O)(=O)N2CCN(c3ncnc4sccc34)CC2)cc1	17.5 (≈ 46.7 µM)
COc1ccc(Cl)cc1NC(=S)Nc1ccc(Cl)cn1	0.2 (≈ 0.609 µM)
O=C(CN1C(=O)NC2(CCCCCC2)C1=O)Nc1ccc(Cl)c([N+](=O)[O-])c1	5.8 (≈ 14.7 µM)
Cc1cccc(NC(=S)Nc2cccc3ccccc23)c1	3.8 (≈ 13 µM)
Cc1nc2c(C(F)(F)F)cccc2c2c1CCS2	< 0.6
COc1ccc(CNC(=O)c2cc(C(=O)C3CC3)c[nH]2)cc1	2 (≈ 6.7 µM)
CN1CCCN(Cc2nc(-c3ccc(Cl)cc3)no2)CC1	40.4 (≈ 132 µM)
Cc1ccc(C(=O)NCCN2CCOCC2)c(Cl)c1	> 42.4
CS(=O)(=O)N1CCCC(C(=O)Nc2ccccc2F)C1 (stereo unspecified)	> 45.1
O=C(Nc1ccc2c(c1)OCCO2)c1cccnc1Oc1ccc(Cl)cc1	5.5 (≈ 14.4 µM)
COc1ccccc1CNC(=O)CN(C)CC(=O)Nc1ccccc1Br	> 63

Structure (SMILES)	solubility kinetic [µg/mL]
N#Cc1ccc(NC(=O)c2cccs2)nc1	> 34.4
O=C(NCc1ccncc1)NC12CC3CC(CC(C3)C1)C2	41.3 (≈ 145 µM)
CS(=O)(=O)N1CCC(C(=O)N2CCN(c3ccccc3F)CC2)CC1	53.1 (≈ 144 µM)
O=C(CN1CCN(c2ccc(F)cc2)CC1)c1ccc(O)cc1O	12.7 (≈ 38.4 µM)
O=C1NC(=O)c2cc([N+](=O)[O-])cc3cccc1c23	6.3 (≈ 26 µM)
Cc1cccc(-n2c(C)cc(/C=C3\NC(=O)NC3=O)c2C)c1	1.8 (≈ 6.09 µM)
O=C(NCCCc1ccccc1)c1cccc(Br)c1	19 (≈ 59.7 µM)
O=C(CSc1ccc2ccccc2n1)NC1CC1	38 (≈ 147 µM)
CC1CCCCC1NC(=O)COc1ncnc2sccc12 (stereo unspecified)	> 45.8
Cc1cccc(C(=O)NCCC(=O)Nc2ccc(C#N)cc2)c1	1.3 (≈ 4.23 µM)
COc1ccc(C(=O)COC(=O)c2cnc(C)cn2)c(OC)c1	> 47.4
Cc1cc2c(c(=O)o1)C(c1ccc([N+](=O)[O-])o1)C(C#N)=C(N)O2 (stereo unspecified)	> 47.3
COCCNc1ncnc2c1cnn2Cc1ccccc1Cl	> 47.7
Cc1c(NCc2cccnc2)cccc1C(=O)O	> 36.3
O=C(Cn1ccc([N+](=O)[O-])n1)NCC1CCCO1 (stereo unspecified)	> 38.1
Cc1nn(CC(=O)Nc2ccc(N3CCOCC3)cc2)c(C)c1[N+](=O)[O-]	> 53.9
CN(C)CCCNc1nc(-c2ccccc2)c2c(c1C#N)CC(C)(C)OC2	47.3 (≈ 130 µM)
O=C(NC1CCCN(CCc2ccccc2)C1)c1c(F)cccc1F (stereo unspecified)	> 51.7
COc1cc(NC(N)=S)c(OC)cc1Cl	> 37
O=C1C=C(NCc2ccccc2)c2ccccc2C1=O	4.6 (≈ 17.5 µM)
COc1cccc(NC(=O)CNC(=O)c2ccc(C)o2)c1	> 43.2
COc1ccc(Br)cc1CN(C)CC(=O)Nc1cccc(S(=O)(=O)N2CCCC2)c1.O=C(O)C(=O)O	12.9
NS(=O)(=O)c1ccc(NC(=S)N2CCc3ccccc32)cc1	2.1 (≈ 6.3 µM)
COC(=O)c1ccc(NC(=O)Nc2ccc3c(c2)OCO3)cc1	0.8 (≈ 2.55 µM)
O=C1NC(=S)S/C1=C\c1ccc2ccccc2c1	1.1 (≈ 4.05 µM)

Structure (SMILES)	solubility kinetic [µg/mL]
Cc1ccc(S(=O)(=O)N(C)c2ccc(OCC(=O)OCc3ccc(C#N)cc3)cc2)cc1	8.4 (≈ 18.6 µM)
NC(=O)c1cccc(CS(=O)(=O)c2ccc(Cl)cc2)c1	16.4 (≈ 52.9 µM)
O=C(NCC(O)c1ccc([N+](=O)[O-])cc1)Nc1ccccc1 (stereo unspecified)	42 (≈ 139 µM)
CC(C)CCN1CCN(C/C=C/c2ccco2)CC1CCO (stereo unspecified)	45.3 (≈ 148 µM)
COc1cc(C2NC(=S)NC(c3ccccc3)=C2C(C)=O)ccc1O (stereo unspecified)	43.8 (≈ 124 µM)
O=C(Nc1ccon1)Nc1cccc(Cl)c1Cl	1.9 (≈ 6.98 µM)
c1ccc2c3c(c(CN4CCCC4)cc2c1)COC3	> 38
Clc1cccc(CN2CCCCCC2)c1Cl	4.8 (≈ 18.6 µM)
COc1ccc(NC(=O)c2cc(-c3ccccc3)on2)cc1	< 0.3
CCc1nnc(NC(=O)C2CCCO2)s1 (stereo unspecified)	> 34.1
O=C(O)c1ccc(-c2ccccc2)[nH]c1=O	> 32.3
COc1cc(NC(=O)CCN2CC(C)OC(C)C2)cc(OC)c1 (stereo unspecified)	34.3 (≈ 106 µM)
CCC(CC)C(=O)c1c[nH]c(C(=O)NCc2cccs2)c1	4.4 (≈ 14.5 µM)
CN1CCCN(C(=O)COc2ccccc2)CC1	> 37.2
O=C(CCc1ccccc1)NC(=S)Nc1ccc2c(c1)C(=O)OC2	< 0.4
O=c1cc(C(F)(F)F)nc(SCc2cccc3ccccc23)[nH]1	7.5 (≈ 22.3 µM)
CCCCCn1cnnc1SCC(=O)c1ccc2c(c1)OCO2	> 50
COc1ccc(/C=N/NC(=O)c2ccc[nH]2)cc1	> 36.5
Cc1ccccc1CSCC(=O)Nc1ccccc1Br	4.5 (≈ 12.8 µM)
O=C(c1ccccn1)c1ccc2ccccc2n1	28.8 (≈ 123 µM)
COC(=O)c1cc(NC(=O)c2cccc(F)c2)cc(C(=O)OC)c1	0.7 (≈ 2.11 µM)

From PubChem BioAssay AID1996
